Patent US20090110671A1, “AGENT FOR ENHANCHING THE PRODUCTION OF COLLAGEN AND IT'S USE” (priority 2005, published 2009)

Tests used:
[1] = tested on: NHDF cells (normal human dermal fibroblast cell); assay: Experiment 1: collagen production in NHDF cells (Sircol kit), α,α-trehalose with AA-2G; type: cell-based; conditions: relative to AA-2G = 100
Procedure: Using “fibrocell NHDF”, a normal human dermal fibroblast cell, commercialized by Kurashiki Spinning Co., Ltd., Okayama, Japan (abbreviated as “NHDF cells”, hereinafter), experiment for studying the influence of α,α-trehalose on the collagen production by L-ascorbic acids was conducted based on the method described in Bioscience, Biotechnology, and Biochemistry, Vol. 68, No. 4, pp. 767-773, 2004. The method is outlined below: Test solutions were prepared by dissolving L-ascorbic acid 2-glucoside, a reagent grade specimen commercialized by Hayashibara Biochemical Laboratories Inc., Okayama, Japan (may be abbreviated as “AA-2G”, hereinafter), and α,α-trehalose, a reagent grade specimen commercialized by Hayashibara Biochemical Laboratories Inc., Okayama, Japan, in Dulbecco […] essential medium containing 10% (v/v) fetal calf serum and an antibiotic (abbreviated as “D-MEM”, hereinafter) to give a final concentration of 50 μM/ml of AA-2G and a final concentration of 7.5, 15 or 30 mg/ml of α,α-trehalose. NHDF cells, which had been successively cultured in D-MEM medium, were collected, re-suspended in a fresh preparation of D-MEM medium, inoculated to 96-well microplates at a cell concentration of 2.5×10^4 cells/200 μl/well, and cultured for 24 hours. Thereafter, the supernatants of the cultures were removed by sucking, and further cultured for five days after addition of any of the test solutions in a volume of 200 μl/well. As controls, the cells, which had been cultured for 24 hours, were further cultured for five days after addition of 200 μl/well of D-MEM medium, D-MEM medium supplemented with α,α-trehalose at a concentration of 30 mg/ml, or D-MEM medium supplemented with AA-2G at a concentration of 50 μM/ml. After completion of culturing, the supernatants of the cultures were removed by sucking, admixed with 50 μl/well of 1 M acetic acid solution containing 1 mg/ml of pepsin, and shaken for four hours to solubilize collagen adhered to the cell surfaces, followed by quantifying the content of collagen accumulated in the cells using “Sircol Collagen Quantification Kit”, commercialized by Biocolor Ltd. These control and test solutions were respectively experimented with three wells, followed by calculating a mean value for collagen-production levels in the wells. All the cultures of the NHDF cells were conducted in a 5% (v/v) CO2 incubator. The results are in Table 1 where the values are expressed with relative values in terms of the collagen-production level of NHDF cells, which had been cultured in D-MEM medium containing AA-2G, being regarded as 100.

NHDF cells = assay: Experiment 4: collagen production in NHDF cells, saccharides combined with hyaluronic acid and/or chondroitin sulfate; type: cell-based, human
From the text: Influence of α,α-trehalose or a saccharide derivative thereof, or a combination use of any of these saccharides and hyaluronic acid and/or chondroitin sulfate on the collagen production by L-ascorbic acids was examined as follows. AA-2G and any one of hydrous crystalline α,α-trehalose, a reagent grade specimen commercialized by Hayashibara Biochemical Laboratories Inc., Okayama, Japan; α-maltosyl α,α-trehalose with a purity of at least 98% commercialized by Hayashibara Biochemical Laboratories Inc., Okayama, Japan; and “HALLODEX”, a product name of a syrup of saccharide derivatives of α,α-trehalose were dissolved in D-MEM medium to give final concentrations of 50 μM of AA-2G and 15.0 mg/ml of saccharides. Further, as another test solutions, those, which had been prepared similarly as in the above, were admixed with any one of hyaluronic acid, chondroitin sulfate, and a combination thereof to give respective concentrations of 1 mg/ml, 1 mg/ml, and 0.5 mg/ml of hyaluronic acid and chondroitin sulfate each. The medium supplemented with a syrup containing about 59%, d.s.b., of saccharide derivatives of α,α-trehalose was prepared to give a concentration of 15.0 mg/ml of the saccharide derivatives of α,α-trehalose contained in the syrup. The culture of NHDF cells and the quantification of collagen-production level thereof were carried out similarly as in Experiment 1. The results are in Table 4 where the values are expressed with relative values in terms of the collagen-production level of NHDF cells, being regarded as 100, when cultured in D-MEM medium containing AA-2G.

For OC[C@H]1O[C@H](O[C@H]2O[C@H](CO)[C@@H](O)[C@H](O)[C@H]2O)[C@H](O)[C@@H](O)[C@@H]1O [α,α-trehalose], the Collagen-production level ([1]; α,α-trehalose 7.5 mg/ml + 50 μM AA-2G) was 150, the Collagen-production level ([1]; α,α-trehalose 15.0 mg/ml + 50 μM AA-2G) was 217 and the Collagen-production level ([1]; α,α-trehalose 30.0 mg/ml + 50 μM AA-2G) was 264. For the same molecule, the Collagen-production level ([1]; α,α-trehalose 30.0 mg/ml in D-MEM, no AA-2G) was 41, the Collagen-production level (NHDF cells; saccharide 15.0 mg/ml + 50 μM AA-2G) was 203 and the Collagen-production level (NHDF cells; saccharide 15.0 mg/ml + 50 μM AA-2G + chondroitin sulfate 1 mg/ml) was 256. For the same molecule, the Collagen-production level (NHDF cells; saccharide 15.0 mg/ml + 50 μM AA-2G + hyaluronate and chondroitin sulfate 0.5 mg/ml each) was 344, the Collagen-production level (NHDF cells; saccharide 15.0 mg/ml + 50 μM AA-2G + sodium hyaluronate 1 mg/ml) was 276 and the Collagen-production level (NHDF cells; saccharide 15.0 mg/ml alone, no AA-2G, no hyaluronate, no chondroitin sulfate) was 42.
